Reference: patent US9517222B2, “Method for the treatment of senile dementia of the Alzheimer's type” (Phenomenome Discoveries Inc., priority 2007, dated 2016)

Tests used:
Type in all cases: cell-based
[1] = tested on: plasmalogen-deficient NRel-4 cells; experiment: Restoration of PtdEt and EtnPl pools in vitro, plasmalogen-deficient NRel-4 cells; conditions: 20 μM, 72 hours
Description: (§1) FIGS. 25A-B show the relative change in the total EtnPls and PtdEt content. […] Values are normalized to untreated control CHO cells, and are an average of three independent experiments. Statistical significance was determined using a two-tailed t-test.
(§2) FIGS. 26A-B show the relative change in the DHA-EtnPls and DHA-PtdEt content. […] Values are normalized to untreated control CHO cells, and are an average of three independent experiments. Statistical significance was determined using a two-tailed t-test.
(§3) To investigate whether exogenous metabolic precursors can restore the ethanolamine phospholipids deficiency in vitro, a CHO cell line deficient in plasmalogen synthesis (NRel-4) was treated with the metabolic precursors 5a (sn-1-alkyl,sn-2-DHA glycerol) for 72 hours at a concentration of 20 μM, and its lipid profile was compared with the wild type cell line.

NRel-4 cell line = experiment: Total, free and esterified cholesterol in cultured cells (Cholesterol Quantification kit)
Description: Total cholesterol (solid bars), esterified cholesterol (hatched bars), and free cholesterol (dotted) content is represented as μg per million cells. C_V: control CHO cells treated with ethanol carrier; N_V: NRel4 cells treated with ethanol carrier; N_5a: Nrel-4 cells treated with metabolic precursor 5a (20 μM).
To test the effect of metabolite precursors on total and esterified cholesterol in vitro, the CHO/NRel-4 cell line model was used. […] CHO cell line cultured in the presence of the ethanol vehicle (C_V) has 6.66 μg total cholestero/million cells. This reflects the wild type phenotype, and was used for normalization. The NRel-4 cell line deficient in plasmalogen synthesis cultured in the presence of ethanol vehicle (N_V) had 10.75 μg total cholestero/million cells (61% higher than control). Culturing the deficient cells with the metabolic precursor 5a (sn-1-alkyl, sn-2-DHA glycerol) for 72 hours at a concentration of 20 µM (N_5a) reduced the total cholesterol content to […] (24% higher than control). […] Treatment with 5a reduced the free cholesterol content to 5.8 μg/million cells. A reciprocal trend was observed when assaying the fraction of cholesterol that was esterified in the cell lines.

wild type CHO cells = experiment: Restoration of PtdEt and EtnPl pools in vitro, wild type CHO cells; conditions: 20 μM, 72 hours
Description: as §1, §2, §3

Compound: CC/C=C\C/C=C\C/C=C\C/C=C\C/C=C\C/C=C\CCC(=O)OC(CO)COCCCCCCCCCCCCCCCC (racemic) [Metabolite 5a, (4Z,7Z,10Z,13Z,16Z,19Z)-1-(hexadecyloxy)-3-hydroxypropan-2-yl docosa-4,7,10,13,16,19-hexanenoate]
- Relative total EtnPls content ([1]; normalized to untreated control CHO cells, vehicle 10.8%): 44.2%
- Total DHA-EtnPls pool ([1]; of CHO levels, vehicle 8.7%): 72.3%
- Total PtdEt content ([1]; of the control CHO): 55.9%
- DHA-PtdEt pool ([1]; vs untreated control CHO): 110.6%
- Esterified cholesterol (NRel-4 cell line; NRel-4 cells treated with 5a, vehicle NRel-4 1.84): 2.49 μg/million cells
- Free cholesterol content (NRel-4 cell line; NRel-4 cells treated with 5a, vehicle NRel-4 8.9, CHO 4.5): 5.8 μg/million cells
- Total cholesterol content (NRel-4 cell line; NRel-4 cells, 72 hours, 20 μM (N_5a), vehicle NRel-4 10.75, CHO 6.66): 8.28 μg/million cells
- Total cholesterol content higher than control (NRel-4 cell line; NRel-4 cells, 72 hours, 20 μM, vs CHO vehicle control): 24%
- Increase in the esterified fraction of cholesterol (NRel-4 cell line; NRel-4 cells, vs vehicle-treated NRel-4): 34%
- Relative total EtnPls content (wild type CHO cells; normalized to untreated control CHO cells): 86.9%
- Total DHA-EtnPls pool (wild type CHO cells; of CHO levels): 136.8%
- Total PtdEt content (wild type CHO cells; of untreated control): 54.9%
- DHA-PtdEt pool (wild type CHO cells; vs untreated control CHO): 93.5%
